{"source": "patent US20220170119A1", "about": "“Signaling Pathway of Cannabidiol (CBD) for Prevention and Treatment of COVID-19” (Hemix Biotech Limited, priority 2020, published 2022)", "key": {"wild type MEFs": {"tested_on": "wild type MEFs", "test": "Proliferation rate (population doubling level) of wild type MEFs", "type": "cell-based, mouse", "description": "(§1) In the step of determining cells' proliferation rate and the optimal concentration of molecules, the primary mouse embryonic fibroblasts (MEFs) at passage 3 were counted by using LUNA-II Automated Cell Counter. 1.0×10^5 cells were seeded to a well of 6-well plate. The cells were treated with DMSO as control, 10 μM or 50 μM CBD.\n(§2) Referring to FIG. 2, after 4-day and 8-day treatment, the cells were counted again using automated cell counter. The population doubling level (PDL), which reflects the proliferation rate of cells, was calculated by the formula: n=3.32 (log UCY−log I)+X, where n=the PDL number, UCY=the cell yield at that time point, I=the initial cell number, and X=the doubling level of the cells used to initiate the subculture being quantitated."}, "Lamin A 609 MEFs": {"tested_on": "Lamin A 609 MEFs", "test": "Proliferation rate (population doubling level) of Lamin A 609 MEFs", "type": "cell-based, mouse", "description": "as §1, §2"}, "TRIB3 [1]": {"tested_on": "TRIB3", "test": "RNA sequencing of TRIB3 expression in wild type MEFs", "type": "cell-based, mouse", "conditions": "wild type MEFs receiving CBD treatment", "description": "(§3) RNA sequencing is carried out wherein the RNA samples were extracted using TRIzol and kept in 75% ethanol in diethylpyrocarbonate (DEPC) water at −20° C. For each condition, two biological replicates were prepared for RNA sequencing. The RNA samples were dissolved in DEPC water and carried out quality control analysis. The RNA quantitation was done using Nanodrop™ and Agilent® 2100 Bioanalyzer. The RNA integrity was measured using Agilent® 2100 Bioanalyzer. The RNA purity was measured using agarose gel electrophoresis and Agilent® 2100 Bioanalyzer.\n(§4) The samples that had concentration over 50 ng/μl for volume over 20 μl, RIN value over 6.3, and OD260/280 value over 2.0 were considered to pass the quality control analysis and were used for RNA sequencing. Illumina sequencing system was used for paired-end reads of read lengths PE150. 6 GB of raw data was acquired from each sample. […]\n(§5) In the step of RNA sequencing, the RNA samples were extracted using TRIzol and kept in 75% ethanol in diethylpyrocarbonate (DEPC) water at −20° C. […] The RNA quantitation was done using Nanodrop™ and Agilent® 2100 Bioanalyzer. The RNA integrity was measured using Agilent® 2100 Bioanalyzer. The RNA purity was measured using agarose gel electrophoresis and Agilent® 2100 Bioanalyzer. […]"}, "TRIB3 [2]": {"tested_on": "TRIB3", "test": "RNA sequencing of TRIB3 expression in Lamin A 609 MEFs", "type": "cell-based, mouse", "conditions": "premature aging Lamin A 609 MEFs, CBD treatment", "description": "as §3, §4, §5"}, "nCoV virus": {"tested_on": "nCoV virus", "test": "nCoV infection of Huh7 cells, qPCR of viral gene copy number", "type": "cell-based", "description": "(§6) To examine CBD inhibitory effects on nCoV infection, Huh7 cells were chosen. 2.0×10^5 cells/well of Huh7 cells were seeded to 24-well plate. The Huh7 cells were treated with DMSO as control, 2.5 μM, 5 μM or 10 μM CBD for 1 hour. The Huh7 cells were then infected with 0.01 MOI of nCoV virus for 1 hour. The inoculum was discarded and the plate was washed with 1 mL PBS twice. The Huh7 cells were then cultured in DMEM/F-12 and treated with DMSO as control, 2.5 μM, 5 μM or 10 μM CBD. After 2, 24 and 48 hours after infection, the supernatant and cell lysate were collected for qPCR analysis for determination of viral gene copy number.\nas §6, with “In the step of examining CBD” for “To examine CBD”, “nCoV infection in” for “nCoV infection,”, “Huh7 cells,” for “Huh7 cells were chosen.”"}, "SARS-Cov-2 pseudovirus": {"tested_on": "SARS-Cov-2 pseudovirus", "test": "Luciferase assay of SARS-Cov-2 pseudovirus infection of Caco2 cells", "type": "cell-based"}, "Caco-2 cells": {"tested_on": "Caco-2 cells", "test": "Proliferation rate (PDL) of Caco-2 cells", "type": "cell-based, human", "conditions": "5 μM CBD", "description": "Referring to FIG. 8, which shown the proliferation rate of Caco-2 cells with CBD treatment. We have compared the population doubling level (PDL) of Caco-2 cells with CBD treatment at four different concentration, namely, 0 μM CBD, 5 μM CBD, 10 μM CBD, and 20 μM CBD. […] Therefore, the COVID-19 virus suppression effect observed in FIG. 7 was not caused by toxicity of CBD."}, "Caco2 cells": {"tested_on": "Caco2 cells", "test": "KI67 expression in Caco2 cells", "type": "cell-based, human", "conditions": "5 μM CBD", "description": "Referring to FIG. 9, to confirm that the COVID-19 virus suppression effect observed in FIG. 7 was not caused by toxicity of CBD, we have analyzed the expression of KI67 with CBD treatment at the concentration of 5 μM CBD. […] It is confirmed that the COVID-19 virus suppression effect observed in FIG. 7 was not caused by toxicity of CBD."}, "TRIB3 [3]": {"tested_on": "TRIB3", "test": "TRIB3 expression level in Caco-2 cells (FIG. 10)", "type": "cell-based, human", "conditions": "Caco2 cells, CBD treatment (FIG. 10)", "from_the_text": "(§7) Referring to FIG. 10, we have further analyzed the mechanism of CBD treatment on Caco-2 cells by comparing the expression level of TRIB3 and AFT5 in Caco-2 cells by the CBD treatment. […] Similarly, ATF5 was also identified by the RNA sequencing results and it is closely associated with TRIB3."}, "ATF5 [4]": {"tested_on": "ATF5", "test": "ATF5 expression level in Caco-2 cells (FIG. 10)", "type": "cell-based, human", "conditions": "Caco2 cells, CBD treatment (FIG. 10)", "from_the_text": "as §7"}, "TRIB3 [5]": {"tested_on": "TRIB3", "test": "TRIB3 expression in Caco2 cells by immunofluorescence staining (FIG. 11)", "type": "cell-based, human", "conditions": "5 μM CBD (FIG. 11)", "from_the_text": "(§8) Referring to FIG. 11, we have further analyzed the mechanism of CBD treatment on Caco-2 cells by comparing the expression level of TRIB3 and AFT5 in Caco2 cells by the CBD treatment. Compared to FIG. 10, we have measured the expression of TRIB3 and AFT5 by immunofluorescence staining."}, "ATF5 [6]": {"tested_on": "ATF5", "test": "ATF5 expression in Caco2 cells by immunofluorescence staining (FIG. 11)", "type": "cell-based, human", "conditions": "5 μM CBD (FIG. 11)", "from_the_text": "as §8"}, "SARS-CoV-2": {"tested_on": "SARS-CoV-2", "test": "qPCR of viral gene copy in SARS-CoV-2 infected golden hamster", "type": "in vivo", "from_the_text": "Referring to FIG. 12, we tested the CBD's anti-COVID-19 effects in nasal turbinate of golden hamster by qPCR analysis of viral gene copy in nasal turbinate of SARS-CoV-2 infected golden hamster upon CBD treatment."}, "lung fibrosis": {"tested_on": "lung fibrosis", "test": "Masson Trichrome staining of Covid-19 infected golden hamster lung", "type": "in vivo", "conditions": "lung of Covid-19 infected golden hamster, compared to control", "from_the_text": "Referring to FIG. 14, we have further tested CBD's anti-COVID-19 effects by analysis of Masson Trichrome staining of Covid-19 infected golden hamster lung treated with control or CBD."}, "LMNA^G609G/G609G mice": {"tested_on": "LMNA^G609G/G609G mice", "test": "CBD treatment in LMNA G609G/G609G mice (health span)", "type": "in vivo, mouse", "conditions": "IP twice a week", "description": "CBD was dissolved in 5% DMSO and 5% polyethylene glycol (PEG) in sterile saline and stored at −80° C. for up to 1 month. 2 months old LMNA^G609G/G609G mice were selected used. The mice then received an intraperitoneal injection (IP) twice a week until they reached the humane point.\nIn step of CBD treating in mice, 2 months old LMNA^G609G/G609G mice were selected and used. They received an intraperitoneal injection (IP) twice a week until they reached the humane point. Different dosages were used for the injection; 50 mg/kg of CBD was identified as the optimal dosage with the greatest extend in health span of the treated mice. CBD was dissolved in 5% DMSO and 5% polyethylene glycol (PEG) in sterile saline and stored at −80° C. for up to 1 month."}, "Covid-19": {"tested_on": "Covid-19", "conditions": "human, in vivo; cited from earlier work"}}}
{"compound": "C=C(C)[C@@H]1CCC(C)=C[C@H]1c1c(O)cc(CCCCC)cc1O", "note": "[CBD, Cannabidiol]", "values": [{"measurement": "population doubling level (PDL)", "setting": "wild type MEFs; high dosage 50 μM CBD", "result": "significantly decreased"}, {"measurement": "population doubling level (PDL)", "setting": "wild type MEFs; optimal dosage 10 μM CBD", "result": "significantly increased"}, {"measurement": "population doubling level (PDL)", "setting": "Lamin A 609 MEFs; high dosage 50 μM CBD", "result": "significantly decreased"}, {"measurement": "population doubling level (PDL)", "setting": "Lamin A 609 MEFs; optimal dosage 10 μM CBD", "result": "significantly increased"}, {"measurement": "TRIB3 expression (fpkm, RNA sequencing)", "setting": "TRIB3 [1]", "result": "upregulated"}, {"measurement": "expression levels of TRIB3 (RNA sequencing)", "setting": "TRIB3 [2]", "result": "increase"}, {"measurement": "nCoV virus infection (viral gene copy number in cell lysate and supernatant)", "setting": "nCoV virus; Huh7 cells, 2.5, 5 or 10 μM CBD, 0.01 MOI, 2, 24 and 48 hours after infection", "result": "inhibited"}, {"measurement": "optimal dosage of CBD", "setting": "nCoV virus; Huh7 cells, inhibition of nCoV infection", "result": 5, "unit": "µM"}, {"measurement": "reduction of SARS-Cov-2 pseudovirus infection", "setting": "SARS-Cov-2 pseudovirus", "result": 72, "unit": "%"}, {"measurement": "proliferation of Caco-2 cells shown by population doubling level (PDL)", "setting": "Caco-2 cells", "result": "didn't affect proliferation"}, {"measurement": "proliferation of Caco2 cells shown by KI67", "setting": "Caco2 cells", "result": "didn't affect proliferation"}, {"measurement": "expression level of TRIB3", "setting": "TRIB3 [3]", "result": "significantly upregulate"}, {"measurement": "expression level of ATF5", "setting": "ATF5 [4]", "result": "significantly upregulate"}, {"measurement": "TRIB3 level of expression, immunofluorescence staining", "setting": "TRIB3 [5]", "result": "increased"}, {"measurement": "ATF5 level of expression, immunofluorescence staining", "setting": "ATF5 [6]", "result": "increased"}, {"measurement": "SARS-Cov-2 infection (viral gene copy) in lung", "setting": "SARS-CoV-2; lung", "result": "suppress"}, {"measurement": "SARS-CoV-2 infection (viral gene copy) in nasal turbinate", "setting": "SARS-CoV-2; nasal turbinate", "result": "reduced"}, {"measurement": "area and intensity of blue stain (fibrosis), Masson Trichrome staining", "setting": "lung fibrosis", "result": "significantly lowered"}, {"measurement": "optimal dosage with the greatest extend in health span", "setting": "LMNA^G609G/G609G mice", "result": 50, "unit": "mg/kg"}]}
{"compound": "NC(=O)c1nc(F)c[nH]c1=O", "note": "[Favipiravir]", "values": [{"measurement": "efficacy in treating COVID-19", "setting": "Covid-19", "result": "not conclusive"}]}
{"compound": "Ivermectin", "values": [{"measurement": "efficacy in treating COVID-19", "setting": "Covid-19", "result": "not conclusive"}]}
{"compound": "Lopinavir-ritonavir", "values": [{"measurement": "efficacy in treating COVID-19", "setting": "Covid-19", "result": "not conclusive"}]}
